Measurements as given in patent US20240209423A1, “METHODS AND COMPOSITIONS FOR REDUCING AUTOFLUORESCENCE” (Advanced Cell Diagnostics, Inc., priority 2021, published 2024).
Values after ≈ are worked out from the molar mass of the structure shown.

What was measured:
[1] = system: tissue autofluorescence in FFPE mouse multi-tissue arrays; test: Quinone compounds tested for tissue autofluorescence quenching, FFPE mouse multi-tissue arrays; settings: incubated for 30 min; compared with 4×SSC untreated control slide
Protocol: Multiple quinone compounds were tested for tissue autofluorescence quenching effects on FFPE mouse multi-tissue arrays. After bake, deparaffinization, and pretreatment to permeabilize the tissue, 4×SSC or quinone derivative was applied to the tissue and incubated for 30 min. After washing DAPI was applied to stain the nucleus. Slides were then mounted with prolong gold and scanned using the same microscopic settings. A reduction in autofluorescence was determined by comparing the fluorescence on the quinone derivative treated slide with a 4×SSC untreated control slide.

[2] = system: FFPE mouse multi tissue array; test: Quinone treatment condition optimization, RNAscope HiPlex, FFPE mouse multi tissue array
[3] = system: FFPE human tumor microarray; test: Quinone treatment condition optimization, RNAscope HiPlex, FFPE human tumor microarray; design: key to the marks not given beside the values; settings: 100 mM, 30 min, Polr2a, PPIB, UBC, Hprt1
Protocol: Major factors tested for p-benzoquinone were chemical concentration, incubation time, and fluorescent dyes.

[4] = system: autofluorescence in FFPE Human Brain Tissues; test: Quenching of endogenous and lipofuscin autofluorescence, unstained FFPE human brain tissues; settings: 100 mM in 4×SSC
Protocol: The present methods are effective at partially reducing autofluorescence caused by lipofuscin pigment granules that are most commonly found in brain tissues. FFPE Human Brain Tissues were treated with or without pBQ and imaged without staining to reveal tissue endogenous autofluorescence.

[5] = system: mouse FFPE liver tissue; test: Dye compatibility with p-benzoquinone treatment, RNAscope, mouse FFPE liver tissue; settings: p-benzoquinone applied after Amp 3
Text: To evaluate the compatibility of certain dyes, targets were detected in mouse FFPE liver tissue, using the p-benzoquinone treatment step. […] Experimentally, these targets were detected using RNAscope® double Z probes and signals were amplified using an RNAscope® amplification system (Amp 1, 2, 3), with p-benzoquinone applied after Amp 3.

[6] = system: human head and neck FFPE tissue; test: CD20 immunofluorescence after p-benzoquinone treatment, human head and neck FFPE tissue; settings: 40 mM in 4×SSC, 30 min, CD20, Opal 520
Protocol: CD20 was detected in human head and neck FFPE tissue. After bake, deparaffmization, and pretreatment to permeabilize the tissue, 4×SSC (untreated control) or p-benzoquinone (pBQ) (40 mM in 4×SSC) was applied onto the tissue and incubated for 30 min. After washing, mouse anti-CD20 primary antibody (Leica Ready to Use) was applied for 1 hour at room temperature (RT). Signal was amplified by rabbit anti-mouse post primary antibody (Leica Ready to Use) and goat anti-rabbit Alexa 488 secondary antibody (Leica Ready to Use) conjugated to HRP. Signal was detected using Opal 520 (Akoya Bio) diluted 1:500 in TSA buffer. The images were taken with the same exposure settings.

[7] = Maximum solubility in 4×SSC; assay type: physicochemical; settings: 4×SSC buffer, aqueous buffer
[8] = system: hTMAc; test: Antibody compatibility with pBQ treatment (immunofluorescence), hTMAc; settings: CD3, Leica mouse anti-CD3 1:200, Goat anti-rabbit AF488 1:500
Protocol: (§1) CD20 was detected in human head and neck FFPE tissue. After bake, deparaffmization, and pretreatment to permeabilize the tissue, 4×SSC (untreated control) or p-benzoquinone (pBQ) (40 mM in 4×SSC) was applied onto the tissue and incubated for 30 min. After washing, mouse anti-CD20 primary antibody (Leica Ready to Use) was applied for 1 hour at room temperature (RT). Signal was amplified by rabbit anti-mouse post primary antibody (Leica Ready to Use) and goat anti-rabbit […] secondary antibody (Leica Ready to Use) conjugated to HRP. Signal was detected using Opal 520 (Akoya Bio) diluted 1:500 in TSA buffer. The images were taken with the same exposure settings. The brightness of the pBQ treated slide was increased by two-fold to achieve optimal display.
(§2) Additional antibodies were tested for compatibility with p-benzoquinone treatment, using the same general experimental method as described above.

[9] = system: autofluorescence in non-human primate fixed frozen liver tissue; test: RNAscope HiPlex assay with p-benzoquinone treatment, non-human primate fixed frozen liver tissue; settings: 100 mM in 4×SSC, vs 4×SSC alone
[10] = system: mouse fresh frozen tissue; test: RNAscope HiPlex assay with p-benzoquinone treatment, mouse fresh frozen tissue; settings: 100 mM in 4×SSC
Protocol: (§3) RNAscope® HiPlex assays were conducted to detect four positive control genes in mouse FFPE kidney tissue. ZZ probes for 12 different targets were hybridized together to a mouse multi-tissue array prepared as formalin-fixed paraffin embedded sections, and the hybridization signals were amplified together by successive rounds of hybridization with the preamplifier and amplifier sequences. Autofluorescence quenching was performed by application of p-benzoquinone (100 mM in 4× Saline-Sodium Citrate (SSC)) onto the slides for 30 minutes at room temperature, followed by detection of four (Ppib, Ubc, Polr2a and Hprt1) of the 12 target genes using fluorescent label probes corresponding to the signal amplification systems assigned to these four target probes and the fluorophores Alexa 488, DyLight 550, DyLight 650 and Alexa 750 respectively (bottom panels). On a separate slide, 4×SSC buffer alone was used as the untreated control. Nuclei were stained with DAPI.
Yet another similar experiment was conducted using mouse fresh frozen tissue, with detection of four of the twelve targets (Polr2a, Ppib, Ubc, and Hprt1).

[11] = system: autofluorescence in human FFPE lung cancer tissue; test: RNAscope HiPlex assay with p-benzoquinone treatment, human FFPE lung cancer tissue; settings: 100 mM in 4×SSC, vs 4×SSC alone
Protocol: as §3

[12] = system: FFPE mouse brain; test: Antibody compatibility with pBQ treatment (immunofluorescence), FFPE mouse brain; settings: NeuN, Chicken anti NeuN 1:500, Goat anti-chicken AF555 1:500
Protocol: as §1, §2

[13] = system: autofluorescence in mouse FFPE kidney tissue; test: RNAscope HiPlex assay with p-benzoquinone autofluorescence quenching, mouse FFPE kidney tissue; settings: 100 mM in 4× SSC, 30 minutes at room temperature, vs 4×SSC control
Protocol: as §3

With `O=C1C=C(Cl)C(=O)C=C1Cl` [2,5-Dichloro-1,4-benzoquinone] as the compound, how does the Autofluorescence quenching effect [1] read?
Its Autofluorescence quenching effect is “Yes”.

For `COC1=CC(=O)C(OC)=CC1=O` [2,5-Dimethoxy-(1,4)-benzoquinone], which Autofluorescence quenching effect [1] is on record?
The Autofluorescence quenching effect was “No”.

With `O=C1C=C(Cl)C(=O)C(Cl)=C1` [2,6-Dichloro-1,4-benzoquinone] as the compound, how does the Autofluorescence quenching effect [1] read?
Its Autofluorescence quenching effect is “Yes”.

For `COC1=CC(=O)C=C(OC)C1=O` [2,6-Dimethoxy-1,4-benzoquinone], which Autofluorescence quenching effect [1] is on record?
Its Autofluorescence quenching effect is “No”.

With `CC1=CC(=O)C=C(C)C1=O` [2,6-Dimethylbenzoquinone] as the compound, how does the Autofluorescence quenching effect [1] read?
Its Autofluorescence quenching effect is “No”.

Which Autofluorescence quenching effect [1] does the source give for `O=C1C=CC(=O)C(Cl)=C1` [2-Chloro-1,4-benzoquinone] here?
Its Autofluorescence quenching effect is “Yes”.

For `COC1=CC(=O)C=CC1=O` [2-methoxybenzo-1,4-quinone], which Autofluorescence quenching effect [1] is on record?
The Autofluorescence quenching effect was “Yes”.

Which Signal/noise ratio ([2]; 20 mM, 4 d, with light exposure) does the source give for `Oc1ccc(O)cc1` [Hydroquinone] here?
The Signal/noise ratio was “−−+”.

And the Signal/noise ratio ([2]; 20 mM, 6 d, with light exposure)?
The Signal/noise ratio was “−−+”.

What about the Signal/noise ratio ([2]; 200 mM, 2 d, with light exposure) of the same compound?
The Signal/noise ratio was “−−+”.

And the Signal/noise ratio ([2]; 200 mM, 4 d, with light exposure)?
The Signal/noise ratio was “−++”.

And the Signal/noise ratio ([2]; 200 mM, 5 d, with light exposure)?
The Signal/noise ratio was “−++”.

What about the Signal/noise ratio ([2]; 200 mM, 6 d, with light exposure) of the same compound?
Its Signal/noise ratio is “−++”.

What about the Signal/noise ratio ([2]; Buffer 2x SSC (20 mM, 4 d, with light exposure)) of the same compound?
Its Signal/noise ratio is “−−+”.

What about the Signal/noise ratio ([2]; Buffer 4x SSC (20 mM, 4 d, with light exposure)) of the same compound?
Its Signal/noise ratio is “−−+”.

And the Signal/noise ratio ([2]; Buffer Decal (20 mM, 4 d, with light exposure))?
The Signal/noise ratio was “−−+”.

What about the Signal/noise ratio ([2]; Buffer RNAase later/inhibitor (20 mM, 4 d, with light exposure)) of the same compound?
Its Signal/noise ratio is “−−+”.

And the Signal/noise ratio ([2]; Light exposure Yes (200 mM, 2 d))?
The Signal/noise ratio was “−−+”.

And the Signal/noise ratio ([2]; Workflow position After Amp1 (20 mM, 2 d, with light exposure))?
Its Signal/noise ratio is “−−+”.

What about the Signal/noise ratio ([2]; Workflow position After Amp2 (20 mM, 2 d, with light exposure)) of the same compound?
The Signal/noise ratio was “−−+”.

And the Signal/noise ratio ([2]; Workflow position After Amp3 (20 mM, 2 d, with light exposure))?
The Signal/noise ratio was “−++”.

What about the Autofluorescence quenching effect [1] of the same compound?
Its Autofluorescence quenching effect is “Yes”.

Which Autofluorescence quenching effect [1] does the source give for `CC1=CC(=O)C=CC1=O` [Methyl-p-benzoquinone] here?
Its Autofluorescence quenching effect is “No”.

Which Autofluorescence quenching effect [1] does the source give for `O.O=C1C(O)=C(O)C(=O)C(O)=C1O` [Tetrahydroxy-1,4-quinone hydrate] here?
The Autofluorescence quenching effect was “No”.

For `O=C1C=CC(=O)C=C1` [p-benzoquinone], which Signal/noise ratio ([2]; 2 mM, overnight, Polr2a, PPIB, UBC, Hprt1) is on record?
The Signal/noise ratio was “+++”.

What about the Signal/noise ratio ([2]; 20 mM, 30 min) of the same compound?
Its Signal/noise ratio is “−−+”.

And the Signal/noise ratio ([2]; 100 mM, 30 min)?
The Signal/noise ratio was “+++”.

What about the Signal/noise ratio ([2]; 200 mM, 30 min) of the same compound?
Its Signal/noise ratio is “+++”.

What about the Signal/noise ratio ([2]; Fluorescent dyes: Alexa dyes) of the same compound?
Its Signal/noise ratio is “+++”.

What about the Signal/noise ratio ([2]; Fluorescent dyes: Dylight dyes) of the same compound?
The Signal/noise ratio was “+++”.

What about the Signal/noise ratio [3] of the same compound?
Its Signal/noise ratio is “+++”.

What about the “effect on lipofuscin autofluorescence (dot-like and clusters of fluorescence)” value [4] of the same compound?
Its value is “partially quenches lipofuscin autofluorescence”.

And the “effect on lipofuscin autofluorescence (dot-like and clusters of fluorescence)” value ([4]; listed as p-Benzoquinone)?
The value was “reduced but not completely eliminated”.

What about the “effect on fixation induced haze background” value ([4]; vs no pBQ control) of the same compound?
Its value is “greatly reduced”.

And the “target detection with ATTO dye label probes after p-benzoquinone treatment” value ([5]; ATTO 550 (UBC), ATTO 647N (POLR2A))?
The value was “did not lead to successful detection”.

What about the “target detection with Dylight label probes after p-benzoquinone treatment” value ([5]; Dylight 550 (UBC), Dylight 650 (POLR2A)) of the same compound?
The value was “successfully detected”.

What about the “compatibility of autofluorescence quenching treatment with immunofluorescence” value [6] of the same compound?
The value was “compatible with immunofluorescence assays”.

And the solubility [7]?
Its solubility is 100 mM (≈ 10.8 mg/mL).

What about the “IF Signal compared to control” value [8] of the same compound?
Its value is “Weaker”.

What about the Autofluorescence quenching effect [1] of the same compound?
Its Autofluorescence quenching effect is “Yes”.

And the “effect on tissue autofluorescence” value [9]?
The value was “reduced autofluorescence”.

What about the “compatibility with RNA in situ hybridization assay” value [10] of the same compound?
Its value is “compatible”.

What about the “effect on tissue autofluorescence” value [11] of the same compound?
The value was “reduced autofluorescence”.

What about the “IF Signal compared to control” value [12] of the same compound?
Its value is “Weaker”.

And the “effect on tissue autofluorescence” value [13]?
Its value is “effectively reduced autofluorescence”.
